Results: patent publication US6503909B1, “Pyrazine compounds” (SmithKline Beecham Corporation, priority 1998, dated 2003)

Tested on: male Han Wistar rats
Assay: rat maximal electroshock test (MES)
Type: in vivo
Experimental: For example, male Han Wistar rats (150-200 grms) were dosed i.p. with a suspension of the test compound in 0.25% methylcellulose 2 hr prior to test. A visual observation was carried out just prior to testing for the presence of ataxia. Using auricular electrodes a current of 200 mA, duration 300 millisec, was applied and the presence or absence of hind limb extension noted.

## Nc1nnc(-c2cccc(Cl)c2Cl)c(N)n1 [lamotrigine]
Rattus norvegicus, ip, dosed i.p. as suspension in 0.25% methylcellulose 2 hr prior to test, 200 mA, 300 millisec, auricular electrodes, read-out: ED50 (MES, hind limb extension)
  ED50: 6.1 mg/kg
i.p., 2 hr prior to test, ataxia by visual observation
  therapeutic index (ratio of the ataxia ED50 and MES ED50): 3.3
